Earlier results on two compounds are cited in US20220331292A1, “COMPOSITIONS AND METHODS FOR DELIVERY OF PSILOCIN AND PRODRUGS THEREOF” (priority 2021, published 2022).

SMILES strings stand for the structures.

Data set [1] concerns the target 5-HT2a serotonin receptor (Homo sapiens, UniProt P28223).
Test in data set [2]: not given
The source holds these as a separate data set.

[3] abbreviates: psilocin after escalating doses of psilocybin.

Chain of 5-HT2a serotonin receptor (P28223 whole entry): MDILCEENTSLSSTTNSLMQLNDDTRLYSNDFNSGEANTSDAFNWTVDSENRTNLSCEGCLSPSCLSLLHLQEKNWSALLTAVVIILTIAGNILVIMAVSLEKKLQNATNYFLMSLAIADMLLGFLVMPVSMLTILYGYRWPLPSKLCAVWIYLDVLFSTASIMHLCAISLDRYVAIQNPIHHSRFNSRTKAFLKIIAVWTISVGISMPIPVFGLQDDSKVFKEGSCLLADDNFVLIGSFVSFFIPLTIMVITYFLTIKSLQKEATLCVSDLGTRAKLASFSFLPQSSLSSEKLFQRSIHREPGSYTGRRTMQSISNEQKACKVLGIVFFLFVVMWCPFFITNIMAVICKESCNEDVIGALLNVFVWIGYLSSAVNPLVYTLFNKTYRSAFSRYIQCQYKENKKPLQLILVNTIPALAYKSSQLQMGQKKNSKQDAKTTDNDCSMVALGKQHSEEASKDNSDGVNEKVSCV

Turning to `CN(C)CCc1c[nH]c2cccc(O)c12` [Psilocin, psilocin], in data set [1], the “binding affinity with 5-HT2a” value is reported as “high binding affinity”. Under setting [3], the half-life entry is on record as “three” and the “pharmacokinetics (linearity)” value is recorded as “linear”.

As for `CN(C)CCc1c[nH]c2cccc(OP(=O)(O)O)c12` [Psilocybin, psilocybin], in data set [2], the “share of metabolized psilocybin excreted in the urine as psilocin-O-glucuronide” value was “About 80%”. The “serious physical or psychological events” value (oral 0.3, 0.45 and 0.6 mg/kg at monthly intervals, during or within 30 days of any dose) is recorded as “no serious physical or psychological events”.
